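Values below derive from 48-hour exposures of cells grown in 96-well plates, with endpoints linearly interpolated between the two concentrations bracketing the appropriate inhibition level. TGI marks complete inhibition of growth.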
What follows are compounds tested on EKVX NSCLC (assay: growth of human tumour cells (NCI), 48 h).
Compound Cc1c(C)c2c(c(N)c1C#N)C(=O)N(CCc1ccccc1)C2=O has a TGI of over 100 µM.

These compounds were tested on SK-OV-3 ovarian (assay: growth of human tumour cells (NCI), 48 h).
Cc1oc2c(c1C)S(=O)(=O)C(C#N)C(c1ccccc1)N2 (configuration not stated) showed a TGI of over 100 µM. Work on CC(=O)Oc1cc2c(n(C)c1=O)-c1ccccc1C2 yielded a TGI of over 100 µM. CCOC(=O)CCC(NC(=O)c1ccc(CNc2nc3ccccc3nc2C(=O)OCC)cc1)C(=O)OCC (configuration not stated) was tested, and the TGI was over 100 µM. COC(=O)Nc1nc2ccc(S(=O)(=O)NC(CC(C)C)C(=O)OC)cc2[nH]1 (configuration not stated) showed a TGI of over 100 µM. In the case of OC(CCN1CCCCC1)(c1ccccc1)c1ccccc1, the TGI was over 100 µM. With COC1CC(C)C(OC)C2=CC(=O)C=C(NC(=O)/C(C)=C/C=C\C(C)C(OC(N)=O)/C(C)=C\C(C)C1OC)C2=O (configuration not stated) the TGI was 2.81 µM. In the case of O=C(Nc1cccc2ccccc12)Nn1cnnc1, the TGI was over 100 µM. Work on CN(C)C=Nc1cccc2nsnc12 yielded a TGI of over 100 µM. COc1cc(S(=O)(=O)Nc2nc(-c3ccc(N4C(=O)CSC4c4cccs4)cc3)cs2)ccc1Cl (configuration not stated) showed a TGI of over 100 µM. With COc1cc(S(=O)(=O)Nc2nc(-c3ccc(N4C(=O)C(CC(=O)O)SC4c4ccccc4O)cc3)cs2)ccc1Cl (configuration not stated) the TGI was over 100 µM. For COC(=O)C(C)NP(=O)(N1CC1)N1CC1 (configuration not stated), the TGI was over 100 µM. For N#C/C(=C\c1cn(Cc2ccccc2)c2ccccc12)c1nn(-c2ccccc2)c(N)c1C#N, the TGI was 40 µM. Ic1ncnc2c1ncn2C1CCCO1 (configuration not stated) showed a TGI of over 100 µM. COc1ccc(Nc2nnc(CCCCCCCCc3nnc(Nc4ccc(OC)cc4)o3)o2)cc1 was tested, and the TGI was over 100 µM. CC1(C)C2CCC3=C(CCC4(C)C5C[C@](C)(C(=O)O)CC[C@]5(C)CC[C@]34C)[C@@]2(C)CC[C@@H]1O (some centres not stated) was tested, and the TGI was 35.7 µM. Work on CC[C@](O)(CC(=O)O[C@H]1C(=O)O[C@@H]2C[C@H]3C(C)=CC(=O)[C@@H](O)[C@]3(C)[C@H]3[C@@]4(O)OC[C@]32[C@@H]1[C@@H](C)[C@H]4O)C(C)C yielded a TGI of under 0.01 µM. Compound CC(C)(C)O/C=C1/C(=O)OC2C[C@@H](O[Si](C)(C)C(C)(C)C)CC12 (some centres not stated) has a TGI of over 100 µM. In the case of O=C1CC(=O)NC(=NN2C(=O)/C(=C/C(=O)c3ccco3)N=C2c2ccccc2)N1, the TGI was over 100 µM. Compound OC1(CCc2ccccc2)COC(C(F)(F)F)(C(F)(F)F)C1 (configuration not stated) has a TGI of over 100 µM. Compound CCC(C)C(C(=O)N/N=C1/SCC(=O)N1c1ccccc1)C(=O)N/N=C1/SCC(=O)N1c1ccccc1 (configuration not stated) has a TGI of 74.6 µM.

Each compound was assayed on TK-10 renal (assay: growth of human tumour cells (NCI), 48 h).
For Cc1oc2c(c1C)S(=O)(=O)C(C#N)C(c1ccccc1)N2 (configuration not stated), the TGI was over 100 µM. CC(=O)Oc1cc2c(n(C)c1=O)-c1ccccc1C2 gave a TGI of over 100 µM. For COc1ccc2cc(Oc3ccc(Cl)cc3)c(=O)oc2c1, the TGI was over 100 µM. Work on O=c1[nH]n(Cc2ccccc2Cl)c2ccc([N+](=O)[O-])cc12 yielded a TGI of over 100 µM. CC1=NN(C(=O)CC(=O)Nc2ccc(C)cc2)C(=O)C1N=Nc1ccc(C(=O)O)cc1 (configuration not stated) was tested, and the TGI was over 100 µM. Work on CCOC(=O)CCC(NC(=O)c1ccc(CNc2nc3ccccc3nc2C(=O)OCC)cc1)C(=O)OCC (configuration not stated) yielded a TGI of over 100 µM. COC(=O)Nc1nc2ccc(S(=O)(=O)NC(CC(C)C)C(=O)OC)cc2[nH]1 (configuration not stated) gave a TGI of 31.9 µM. Work on OC(CCN1CCCCC1)(c1ccccc1)c1ccccc1 yielded a TGI of over 100 µM. Compound COC1CC(C)C(OC)C2=CC(=O)C=C(NC(=O)/C(C)=C/C=C\C(C)C(OC(N)=O)/C(C)=C\C(C)C1OC)C2=O (configuration not stated) has a TGI of 9.81 µM. O=C(Nc1cccc2ccccc12)Nn1cnnc1 was tested, and the TGI was over 100 µM. CN(C)C=Nc1cccc2nsnc12 gave a TGI of over 100 µM. COc1cc(S(=O)(=O)Nc2nc(-c3ccc(N4C(=O)CSC4c4cccs4)cc3)cs2)ccc1Cl (configuration not stated) was tested, and the TGI was over 100 µM. COc1cc(S(=O)(=O)Nc2nc(-c3ccc(N4C(=O)C(CC(=O)O)SC4c4ccccc4O)cc3)cs2)ccc1Cl (configuration not stated) was tested, and the TGI was over 100 µM. In the case of COC(=O)C(C)NP(=O)(N1CC1)N1CC1 (configuration not stated), the TGI was over 100 µM. With N#C/C(=C\c1cn(Cc2ccccc2)c2ccccc12)c1nn(-c2ccccc2)c(N)c1C#N the TGI was 35.8 µM. Ic1ncnc2c1ncn2C1CCCO1 (configuration not stated) was tested, and the TGI was over 100 µM. COc1ccc(Nc2nnc(CCCCCCCCc3nnc(Nc4ccc(OC)cc4)o3)o2)cc1 showed a TGI of over 100 µM. In the case of COc1cc(OCc2ccc3nc(-c4ccccc4)c(Cl)nc3c2)cc(OC)c1OC, the TGI was over 100 µM. Compound CC1(C)C2CCC3=C(CCC4(C)C5C[C@](C)(C(=O)O)CC[C@]5(C)CC[C@]34C)[C@@]2(C)CC[C@@H]1O (some centres not stated) has a TGI of 32.2 µM. Compound O=[n+]1c2ccccc2n([O-])c2ccccc21 has a TGI of over 100 µM. CC[C@](O)(CC(=O)O[C@H]1C(=O)O[C@@H]2C[C@H]3C(C)=CC(=O)[C@@H](O)[C@]3(C)[C@H]3[C@@]4(O)OC[C@]32[C@@H]1[C@@H](C)[C@H]4O)C(C)C showed a TGI of under 0.01 µM. CC(C)(C)O/C=C1/C(=O)OC2C[C@@H](O[Si](C)(C)C(C)(C)C)CC12 (some centres not stated) showed a TGI of over 100 µM. O=C1CC(CC(O)[C@@H]2CCCC[C@@H]2O)CC(=O)N1c1ccccc1 (some centres not stated) gave a TGI of over 100 µM. Compound O=C1CC(=O)NC(=NN2C(=O)/C(=C/C(=O)c3ccco3)N=C2c2ccccc2)N1 has a TGI of over 100 µM. OC1(CCc2ccccc2)COC(C(F)(F)F)(C(F)(F)F)C1 (configuration not stated) showed a TGI of over 100 µM. With CCC(C)C(C(=O)N/N=C1/SCC(=O)N1c1ccccc1)C(=O)N/N=C1/SCC(=O)N1c1ccccc1 (configuration not stated) the TGI was over 100 µM. Compound Cc1c(C)c2c(c(N)c1C#N)C(=O)N(CCc1ccccc1)C2=O has a TGI of over 100 µM.

What follows are compounds tested on SF-268 CNS (assay: growth of human tumour cells (NCI), 48 h).
Work on Cc1oc2c(c1C)S(=O)(=O)C(C#N)C(c1ccccc1)N2 (configuration not stated) yielded a TGI of over 100 µM. CC(=O)Oc1cc2c(n(C)c1=O)-c1ccccc1C2 showed a TGI of over 100 µM. With COc1ccc2cc(Oc3ccc(Cl)cc3)c(=O)oc2c1 the TGI was over 100 µM. O=c1[nH]n(Cc2ccccc2Cl)c2ccc([N+](=O)[O-])cc12 gave a TGI of over 100 µM. Compound CC1=NN(C(=O)CC(=O)Nc2ccc(C)cc2)C(=O)C1N=Nc1ccc(C(=O)O)cc1 (configuration not stated) has a TGI of over 100 µM. With CCOC(=O)CCC(NC(=O)c1ccc(CNc2nc3ccccc3nc2C(=O)OCC)cc1)C(=O)OCC (configuration not stated) the TGI was over 100 µM. For COC(=O)Nc1nc2ccc(S(=O)(=O)NC(CC(C)C)C(=O)OC)cc2[nH]1 (configuration not stated), the TGI was over 100 µM. Compound OC(CCN1CCCCC1)(c1ccccc1)c1ccccc1 has a TGI of over 100 µM. With COC1CC(C)C(OC)C2=CC(=O)C=C(NC(=O)/C(C)=C/C=C\C(C)C(OC(N)=O)/C(C)=C\C(C)C1OC)C2=O (configuration not stated) the TGI was 6.98 µM.
